Measured values taken from ChEMBL document CHEMBL1139550, “1-Acyl-1H-[1,2,4]triazole-3,5-diamine analogues as novel and potent anticancer cyclin-dependent kinase inhibitors: synthesis and evaluation of biological activities” (J Med Chem, 2005).
Where “and” joins values, the source holds several entries; their conditions need not be identical. Equal values may be shown once.

Columns and labels:
[1] = Area under concentration time curve after 30 mg/kg of oral dose in nude mice; assay type: ADME, organism-based; parameters: dose 30 mg/kg, route oral; conditions: mouse, in vivo
HeLa [2] = test: In vitro inhibitory concentration against cell proliferation in human HeLa (cervical adenocarcinoma) tumor cells; assay type: functional, cell-based
Casein kinase I = test: Inhibition of human casein kinase-1; assay type: protein assay
[3] = Maximum plasma concentration after oral administration of 30 mg/kg in nude mice; assay type: ADME, organism-based; parameters: dose 30 mg/kg, route oral; conditions: mouse
HCT-116 = test: In vitro inhibitory concentration against cell proliferation in human HCT116 (colon carcinoma) tumor cells; assay type: functional, cell-based
[4] = Half life after intravenous administration of 3 mg/kg; assay type: ADME, organism-based; parameters: dose 3 mg/kg, route intravenous; conditions: rat, in vivo
[5] = molecular target: Cyclin-dependent kinase 2/cyclin A (Homo sapiens, UniProt P24941); test: Inhibition of Cyclin-dependent kinase 2-cyclin A; assay type: protein-complex assay
[6] = molecular target: Mitogen-activated protein kinase; ERK1/ERK2 (Homo sapiens, UniProt P27361+P28482); test: Inhibition of Mitogen-activated protein kinase 1; assay type: protein assay
[7] = Area under concentration time curve after 3 mg/kg […] in nude mice; assay type: ADME, organism-based; parameters: dose 3 mg/kg; conditions: mouse, in vivo
Casein kinase II = Casein kinase II (Homo sapiens, UniProt P19784+P67870+P68400); test: Inhibition of Casein kinase-2; assay type: protein-complex assay
[8] = molecular target: Cyclin-dependent kinase 4/cyclin D1 (Homo sapiens, UniProt P11802); test: Inhibition of Cyclin-dependent kinase 4-cyclin D1; assay type: protein-complex assay
[9] = Bioavailability in mouse (nude) (dose 30 mg/kg p.o.); assay type: ADME, organism-based; conditions: in vivo, po
[10] = Inhibition of Protein kinase A
[11] = molecular target: Fibroblast growth factor receptor 2 (Homo sapiens, UniProt P21802); test: Inhibition of Fibroblast growth factor receptor 2
[12] = molecular target: Cyclin-dependent kinase 1/cyclin B (Homo sapiens, UniProt P06493); test: Inhibition of Cyclin B-cyclin-dependent kinase 1; assay type: protein-complex assay
PC-3 = test: In vitro inhibitory concentration against cell proliferation in human PC-3 (prostate adenocarcinoma) tumor cells; assay type: functional, cell-based
[13] = molecular target: Protein kinase C beta type (Homo sapiens, UniProt P05771); test: Inhibition of Protein kinase C- beta 2
SK-OV-3 = test: In vitro inhibitory concentration against cell proliferation in human SK-OV-3 (ovarian adenocarcinoma) tumor cells; assay type: functional, cell-based
[14] = Inhibition of Platelet-derived growth factor receptor beta
[15] = Half life after oral administration of 30 mg/kg; assay type: ADME, organism-based; parameters: dose 30 mg/kg, route oral; conditions: rat, in vivo
[16] = molecular target: Vascular endothelial growth factor receptor 2 (Homo sapiens, UniProt P35968); test: Inhibition of Vascular endothelial growth factor receptor 2
[17] = molecular target: Glycogen synthase kinase-3 (Homo sapiens, UniProt P49840+P49841); test: Inhibition of Glycogen synthase kinase-3; assay type: protein assay
CaM kinase II = CaM kinase II (Homo sapiens, UniProt Q13557+Q13555+Q13554+Q9UQM7); test: Inhibition of [Ca(2+)]/calmodulin dependent kinase; assay type: protein assay
[18] = Maximum plasma concentration after intravenous administration of 3 mg/kg in nude mice; assay type: ADME, organism-based; parameters: dose 3 mg/kg, route intravenous; conditions: mouse
[19] = Inhibition of Protein kinase-C alpha/gamma
A-375 [20] = test: In vitro inhibitory concentration against cell proliferation in human A375 (malignant melanoma),tumor cells; assay type: functional, cell-based
[21] = Area under concentration time curve after 30 mg/kg of oral dose in rat; assay type: ADME, organism-based; parameters: dose 30 mg/kg, route oral; conditions: in vivo
[22] = Area under concentration time curve after 3 mg/kg […] in rat; assay type: ADME, organism-based; parameters: dose 3 mg/kg; conditions: in vivo
[23] = Maximum plasma concentration after intravenous administration of 3 mg/kg in rat; assay type: ADME, organism-based; parameters: dose 3 mg/kg, route intravenous
Mus musculus [24] = test: Mean day of survival after intraperitoneal administration of 100 mg/kg in mice; assay type: functional
[25] = Bioavailability in dog after 10 mg/kg oral dose; assay type: ADME, organism-based, Canis lupus familiaris; conditions: in vivo, read-out: Bioavailabiility
[26] = Half life after intravenous administration of 1 mg/kg; assay type: ADME, organism-based, Canis lupus familiaris; parameters: dose 1 mg/kg, route intravenous; conditions: dog, in vivo
MDA-MB-231 [27] = test: In vitro inhibitory concentration against cell proliferation in various human MDA-MB-231 (breast carcinoma) tumor cells; assay type: functional, cell-based
[28] = Bioavailability in rat after 30 mg/kg oral dose; assay type: ADME, organism-based; conditions: in vivo, read-out: Bioavailabiility
[29] = Maximum plasma concentration after intravenous administration of 1 mg/kg in dog; assay type: ADME, organism-based, Canis lupus familiaris; parameters: dose 1 mg/kg, route intravenous
[30] = Area under concentration time curve after 1 mg/kg of intravenous dose in dog; assay type: ADME, organism-based, Canis lupus familiaris; parameters: dose 1 mg/kg, route intravenous; conditions: in vivo
[31] = Maximum plasma concentration after oral administration of 10 mg/kg in dog; assay type: ADME, organism-based, Canis lupus familiaris; parameters: dose 10 mg/kg, route oral
Mus musculus [32] = test: Mean day of survival after intraperitoneal administration of 75 mg/kg in mice; assay type: functional
[33] = Maximum plasma concentration after oral administration of 30 mg/kg in rat; assay type: ADME, organism-based; parameters: dose 30 mg/kg, route oral
[34] = Half life after oral administration of 10 mg/kg; assay type: ADME, organism-based, Canis lupus familiaris; parameters: dose 10 mg/kg, route oral; conditions: dog, in vivo
[35] = Area under concentration time curve after 10 mg/kg of oral dose in dog; assay type: ADME, organism-based, Canis lupus familiaris; parameters: dose 10 mg/kg, route oral; conditions: in vivo
HeLa [36] = test: In vitro inhibitory concentration against cell proliferation in s human HeLa (cervical adenocarcinoma),tumor cells; assay type: functional, cell-based
MDA-MB-231 [37] = test: In vitro inhibitory concentration against cell proliferation in human MDA-MB-231 (breast carcinoma) tumor cells; assay type: functional, cell-based
A-375 [38] = test: In vitro inhibitory concentration against cell proliferation in human A375 (malignant melanoma) tumor cells; assay type: functional, cell-based

Chain of Protein kinase C beta type (P05771 whole entry): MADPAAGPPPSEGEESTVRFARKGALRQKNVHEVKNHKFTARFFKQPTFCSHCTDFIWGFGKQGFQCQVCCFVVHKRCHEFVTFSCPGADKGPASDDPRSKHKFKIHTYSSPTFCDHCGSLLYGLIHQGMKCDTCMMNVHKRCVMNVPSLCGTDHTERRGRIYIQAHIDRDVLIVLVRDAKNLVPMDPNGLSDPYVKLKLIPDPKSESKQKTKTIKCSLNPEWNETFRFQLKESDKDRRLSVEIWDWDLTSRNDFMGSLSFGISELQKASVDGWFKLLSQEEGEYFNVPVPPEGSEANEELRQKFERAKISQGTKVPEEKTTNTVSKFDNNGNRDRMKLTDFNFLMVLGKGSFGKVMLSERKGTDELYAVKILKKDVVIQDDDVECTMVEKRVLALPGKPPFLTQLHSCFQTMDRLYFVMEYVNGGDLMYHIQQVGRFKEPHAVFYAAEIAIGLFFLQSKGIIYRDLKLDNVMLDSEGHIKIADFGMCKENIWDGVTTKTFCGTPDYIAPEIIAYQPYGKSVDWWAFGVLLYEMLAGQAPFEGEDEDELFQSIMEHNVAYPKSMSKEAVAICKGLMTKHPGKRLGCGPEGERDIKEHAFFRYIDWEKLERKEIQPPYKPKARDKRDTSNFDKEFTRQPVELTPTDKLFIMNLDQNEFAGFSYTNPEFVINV
Chain of Fibroblast growth factor receptor 2 (P21802 whole entry): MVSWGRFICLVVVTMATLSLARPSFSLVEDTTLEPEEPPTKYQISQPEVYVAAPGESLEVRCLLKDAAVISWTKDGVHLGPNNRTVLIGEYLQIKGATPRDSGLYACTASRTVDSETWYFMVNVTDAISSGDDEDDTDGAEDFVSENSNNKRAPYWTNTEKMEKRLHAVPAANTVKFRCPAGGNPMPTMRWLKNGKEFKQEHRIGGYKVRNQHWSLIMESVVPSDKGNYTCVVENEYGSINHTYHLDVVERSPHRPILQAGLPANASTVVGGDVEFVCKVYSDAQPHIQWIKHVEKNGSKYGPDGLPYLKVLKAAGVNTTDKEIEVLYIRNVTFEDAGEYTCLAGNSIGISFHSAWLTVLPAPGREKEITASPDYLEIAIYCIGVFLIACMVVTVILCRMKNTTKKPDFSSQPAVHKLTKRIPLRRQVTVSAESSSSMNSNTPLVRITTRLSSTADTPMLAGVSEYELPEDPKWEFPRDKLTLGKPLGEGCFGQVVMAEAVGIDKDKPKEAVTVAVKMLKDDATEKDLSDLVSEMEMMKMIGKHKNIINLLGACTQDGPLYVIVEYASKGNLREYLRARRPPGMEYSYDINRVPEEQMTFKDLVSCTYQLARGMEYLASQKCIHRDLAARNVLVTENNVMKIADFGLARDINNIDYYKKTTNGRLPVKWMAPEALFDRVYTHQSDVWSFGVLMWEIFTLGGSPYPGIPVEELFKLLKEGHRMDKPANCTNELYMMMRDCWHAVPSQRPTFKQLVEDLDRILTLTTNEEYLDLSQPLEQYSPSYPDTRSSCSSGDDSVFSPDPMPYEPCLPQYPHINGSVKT
Chain of Casein kinase II (P67870 whole entry): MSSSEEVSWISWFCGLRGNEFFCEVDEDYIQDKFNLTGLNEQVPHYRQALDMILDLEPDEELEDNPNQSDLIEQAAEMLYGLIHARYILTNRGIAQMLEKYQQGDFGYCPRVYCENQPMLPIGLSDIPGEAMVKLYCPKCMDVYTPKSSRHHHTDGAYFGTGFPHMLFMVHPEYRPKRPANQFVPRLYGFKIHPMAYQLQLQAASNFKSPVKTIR
Chain of Casein kinase II (P68400 whole entry): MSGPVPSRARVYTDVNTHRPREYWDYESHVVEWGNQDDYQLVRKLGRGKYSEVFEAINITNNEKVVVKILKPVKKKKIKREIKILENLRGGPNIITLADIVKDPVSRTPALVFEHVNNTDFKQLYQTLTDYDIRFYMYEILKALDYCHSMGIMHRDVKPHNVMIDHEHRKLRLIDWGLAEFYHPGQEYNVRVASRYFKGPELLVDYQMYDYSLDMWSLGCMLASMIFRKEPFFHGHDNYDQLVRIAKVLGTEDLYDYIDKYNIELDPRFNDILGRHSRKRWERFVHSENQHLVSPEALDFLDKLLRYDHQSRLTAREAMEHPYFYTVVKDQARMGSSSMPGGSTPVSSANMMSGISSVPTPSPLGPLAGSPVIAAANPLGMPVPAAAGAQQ
Chain of Casein kinase II (P19784 whole entry): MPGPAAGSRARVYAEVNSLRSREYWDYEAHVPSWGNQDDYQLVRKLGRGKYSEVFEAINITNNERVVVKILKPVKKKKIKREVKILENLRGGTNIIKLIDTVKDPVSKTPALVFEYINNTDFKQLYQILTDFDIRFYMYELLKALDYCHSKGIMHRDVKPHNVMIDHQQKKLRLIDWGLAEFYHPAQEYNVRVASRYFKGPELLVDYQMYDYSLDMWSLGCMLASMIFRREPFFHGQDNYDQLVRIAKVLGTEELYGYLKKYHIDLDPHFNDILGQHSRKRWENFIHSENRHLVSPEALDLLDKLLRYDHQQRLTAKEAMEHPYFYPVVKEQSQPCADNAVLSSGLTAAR
Chain of Cyclin-dependent kinase 4/cyclin D1 (P11802 whole entry): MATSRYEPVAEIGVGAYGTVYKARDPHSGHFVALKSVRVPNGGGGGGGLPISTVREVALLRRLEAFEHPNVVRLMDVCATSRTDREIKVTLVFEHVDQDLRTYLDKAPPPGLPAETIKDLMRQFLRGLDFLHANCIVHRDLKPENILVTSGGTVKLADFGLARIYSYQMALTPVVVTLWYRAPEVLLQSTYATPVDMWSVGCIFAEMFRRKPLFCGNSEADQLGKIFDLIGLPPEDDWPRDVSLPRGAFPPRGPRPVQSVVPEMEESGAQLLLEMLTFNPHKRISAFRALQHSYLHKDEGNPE
Chain of Cyclin-dependent kinase 4/cyclin D1 (P24385 whole entry, further chain): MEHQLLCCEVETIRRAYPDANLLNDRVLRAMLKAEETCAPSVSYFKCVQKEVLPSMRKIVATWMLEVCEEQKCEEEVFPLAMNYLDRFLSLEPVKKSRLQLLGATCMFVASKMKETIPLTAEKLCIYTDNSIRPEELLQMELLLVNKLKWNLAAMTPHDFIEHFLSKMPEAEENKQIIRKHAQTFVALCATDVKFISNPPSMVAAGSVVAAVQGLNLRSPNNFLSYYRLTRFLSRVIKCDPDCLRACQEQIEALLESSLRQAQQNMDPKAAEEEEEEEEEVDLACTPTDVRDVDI
Chain of Vascular endothelial growth factor receptor 2 (P35968 whole entry): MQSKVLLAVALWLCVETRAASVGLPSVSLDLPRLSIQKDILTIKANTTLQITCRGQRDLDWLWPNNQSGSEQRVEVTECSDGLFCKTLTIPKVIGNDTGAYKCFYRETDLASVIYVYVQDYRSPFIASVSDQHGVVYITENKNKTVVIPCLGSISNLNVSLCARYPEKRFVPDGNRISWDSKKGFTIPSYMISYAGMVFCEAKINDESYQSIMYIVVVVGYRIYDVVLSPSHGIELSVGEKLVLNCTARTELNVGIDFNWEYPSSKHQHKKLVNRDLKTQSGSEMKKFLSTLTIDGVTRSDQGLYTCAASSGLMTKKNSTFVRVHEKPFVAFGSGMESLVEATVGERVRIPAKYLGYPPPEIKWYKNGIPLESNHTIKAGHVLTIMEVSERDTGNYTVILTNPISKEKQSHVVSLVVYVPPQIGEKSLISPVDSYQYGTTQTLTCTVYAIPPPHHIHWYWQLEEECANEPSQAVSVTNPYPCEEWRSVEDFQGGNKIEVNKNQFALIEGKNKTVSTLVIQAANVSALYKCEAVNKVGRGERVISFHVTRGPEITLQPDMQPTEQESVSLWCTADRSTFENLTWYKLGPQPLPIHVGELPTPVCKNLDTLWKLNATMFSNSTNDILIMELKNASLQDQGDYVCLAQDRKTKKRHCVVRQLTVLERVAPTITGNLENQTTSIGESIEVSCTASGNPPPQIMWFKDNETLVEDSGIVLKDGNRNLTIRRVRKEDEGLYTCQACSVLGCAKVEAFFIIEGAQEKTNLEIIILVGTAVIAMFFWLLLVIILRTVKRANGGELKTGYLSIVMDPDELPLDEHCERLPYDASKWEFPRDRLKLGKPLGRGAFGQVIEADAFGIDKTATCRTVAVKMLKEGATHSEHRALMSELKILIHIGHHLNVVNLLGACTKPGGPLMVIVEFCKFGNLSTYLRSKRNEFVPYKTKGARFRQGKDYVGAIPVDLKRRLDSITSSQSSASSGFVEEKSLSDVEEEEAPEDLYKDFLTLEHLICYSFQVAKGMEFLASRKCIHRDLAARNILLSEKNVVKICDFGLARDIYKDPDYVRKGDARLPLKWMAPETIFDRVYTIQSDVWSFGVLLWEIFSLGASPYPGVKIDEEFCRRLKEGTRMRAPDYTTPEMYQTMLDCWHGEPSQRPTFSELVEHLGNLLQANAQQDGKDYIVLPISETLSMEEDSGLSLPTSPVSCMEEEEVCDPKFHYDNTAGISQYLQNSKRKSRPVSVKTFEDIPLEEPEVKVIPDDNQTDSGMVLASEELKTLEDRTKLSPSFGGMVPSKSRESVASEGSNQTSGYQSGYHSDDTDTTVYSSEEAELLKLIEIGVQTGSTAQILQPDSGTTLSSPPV

Cc1ccc(F)c(C(=O)n2nc(Nc3ccc(S(N)(=O)=O)cc3)nc2C)c1F
AUC [1]: 0.55 µM·h | IC50 (HeLa [2]): 0.37 µM | IC50 (Casein kinase I): > 100 µM | Cmax [3]: 430 nM | IC50 (HCT-116): 0.88 µM | half-life [4]: 1.94 h | IC50 [5]: 0.0003 µM | IC50 [6]: 9.5 µM | AUC [7]: 0.27 µM·h | IC50 (Casein kinase II): > 100 µM | IC50 [8]: 0.19 µM | bioavailability [9]: 20.6% | IC50 [10]: > 100 µM | IC50 [11]: 0.27 µM | IC50 [12]: 0.008 µM and 0.003 µM | IC50 (PC-3): 0.16 µM | IC50 [13]: > 100 µM | IC50 (SK-OV-3): 0.22 µM | IC50 [14]: 10.7 µM | half-life [15]: 2.29 h | IC50 [16]: 0.51 µM | IC50 [17]: 0.031 µM | IC50 (CaM kinase II): > 100 µM | Cmax [18]: 330 nM | IC50 [19]: > 100 µM

N[n+]1nc(Nc2ccc(S(N)(=O)=O)cc2)nn1S(=O)(=O)c1c(F)cccc1F
IC50 [12]: 0.66 µM

CN(C)CCNS(=O)(=O)c1ccc(Nc2nc(N)n(C(=O)c3c(F)cccc3F)n2)cc1
IC50 (HeLa [2]): 0.14 µM | IC50 [12]: 0.13 µM

Nc1nc(Nc2ccc(S(N)(=O)=O)cc2)nn1C(=S)Nc1c(F)cccc1F
IC50 (HeLa [2]): 0.035 µM | IC50 (HCT-116): 0.02 µM | IC50 (Casein kinase II): > 100 µM | IC50 (A-375 [20]): 0.092 µM | IC50 [14]: 1.6 µM

Nc1nc(Nc2ccc(S(N)(=O)=O)cc2)nn1C(=O)c1c(F)cccc1F [JNJ-7706621]
AUC [1]: 0.74 µM·h | Cmax [3]: 210 nM | T1/2 [4]: 0.64 h | half-life [4]: 0.51 h | AUC [21]: 9.5 µM·h | AUC [7]: 3.2 µM·h | AUC [22]: 11.4 µM·h | Cmax [23]: 23200 nM | Mean day survival (Mus musculus [24]): 50.1 days | bioavailability [25]: 63.3% | half-life [26]: 3.89 h | bioavailability [9]: 2% | IC50 [10]: > 100 µM | IC50 (MDA-MB-231 [27]): 0.59 µM | bioavailability [28]: 8% | Cmax [29]: 2190 nM | IC50 [11]: 0.22 µM | IC50 (PC-3): 0.12 µM | AUC [30]: 2.45 µM·h | IC50 [13]: > 100 µM | Cmax [31]: 4580 nM | Mean day survival (Mus musculus [32]): 48.5 days | Cmax [33]: 2500 nM | half-life [34]: 2.36 h | IC50 (SK-OV-3): 0.75 µM | T1/2 [15]: 2.2 h and 1.7 h | Cmax [18]: 6400 nM | AUC [35]: 15.5 µM·h | IC50 [19]: 30.1 µM

Nc1nc(Nc2ccc(S(N)(=O)=O)cc2)nn1C(=O)c1cccs1
IC50 (HeLa [2]): 0.55 µM | IC50 (HCT-116): 1.9 µM | IC50 (MDA-MB-231 [27]): 0.76 µM | IC50 (PC-3): 0.16 µM | IC50 (SK-OV-3): 0.73 µM | IC50 (A-375 [20]): 2.6 µM

Nc1nc(Nc2ccc(S(N)(=O)=O)cc2)nn1C(=O)Nc1c(F)cccc1F
IC50 (HCT-116): 4.7 µM | IC50 (A-375 [20]): 48.3 µM | IC50 (HeLa [36]): 3.73 µM

Nc1nc(Nc2ccc(S(N)(=O)=O)cc2)nn1Cc1c(F)cccc1F
IC50 [12]: > 100 µM

Cc1ccc(F)c(C(=O)n2nc(N)nc2Nc2ccc(S(N)(=O)=O)cc2)c1F
IC50 (HeLa [2]): 28.5 µM | IC50 (HCT-116): 4.1 µM | IC50 [12]: 2.1 µM | IC50 (A-375 [20]): > 10 µM

Cc1ccsc1C(=O)n1nc(Nc2ccc(S(N)(=O)=O)cc2)nc1N
IC50 (HeLa [2]): 0.091 µM | IC50 (HCT-116): 0.13 µM | IC50 [5]: 0.0004 µM | IC50 (Casein kinase II): > 100 µM | IC50 [8]: 0.12 µM | IC50 [11]: 0.18 µM | IC50 (PC-3): 0.11 µM | IC50 [13]: > 100 µM | IC50 (A-375 [20]): 0.25 µM | IC50 [14]: 0.31 µM | IC50 [17]: 0.026 µM | IC50 [19]: > 100 µM

Cc1cc(C)c(C(=O)n2nc(Nc3ccc(S(N)(=O)=O)cc3)nc2N)s1
IC50 (HeLa [2]): 0.072 µM | IC50 (HCT-116): 0.27 µM | IC50 (PC-3): 0.037 µM | IC50 (MDA-MB-231 [37]): 0.17 µM

Cc1nc(Nc2ccc(S(N)(=O)=O)cc2)nn1C(=O)c1c(F)ccc(F)c1F
IC50 (HeLa [2]): 0.22 µM | IC50 [12]: 0.0032 µM | IC50 (SK-OV-3): 1.6 µM

Nc1nc(Nc2ccc(S(N)(=O)=O)cc2)n(C(=S)c2c(F)cccc2F)n1
IC50 (HeLa [2]): 0.13 µM | IC50 (HCT-116): 0.91 µM | IC50 (A-375 [20]): 0.97 µM

Nc1nc(Nc2ccc(S(N)(=O)=O)cc2)nn1C(=O)c1sccc1F
IC50 (HeLa [2]): 0.26 µM | IC50 (HCT-116): 0.21 µM | IC50 (A-375 [38]): 0.94 µM | IC50 (PC-3): 0.37 µM | IC50 (SK-OV-3): 2.1 µM
